Assay results as given in ChEMBL document CHEMBL1201862, “PubChem BioAssay data set” (2004).
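These data come from cells grown in 96-well plates and exposed to compound for 48 hours at five concentrations. Abbreviation: GI50, concentration required for 50% inhibition of growth.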 The source made the active and inactive calls. Rule as the data show it: active = GI50 up to about 1.1 µM and inactive = higher. Square brackets hold non-standard residues; d marks the D form. Peptide text beside a SMILES is read from it. * marks the point of attachment. Phe(4-NO2) = N[CH](Cc1ccc([N+](=O)[O-])cc1)C(=O)O; Boc = CC(C)(C)OC(=O)*

Key:
Test in all cases: NCI tumour cell line growth inhibition, 48 h
CAKI-1 = test system: CAKI-1
COLO 205 = test system: COLO 205
HCT-15 = test system: HCT-15
HOP-62 = test system: HOP-62
HT-29 = test system: HT-29
IGROV-1 = test system: IGROV-1
MDA-MB-231 = test system: MDA-MB-231
NCI-H226 = test system: NCI-H226
NCI-H522 = test system: NCI-H522
OVCAR-5 = test system: OVCAR-5
RPMI-8226 = test system: RPMI-8226
RXF 393 = test system: RXF 393
SK-MEL-5 = test system: SK-MEL-5
SK-OV-3 = test system: SK-OV-3
SNB-19 = test system: SNB-19
TK-10 = test system: TK-10
U-251 = test system: U-251
UACC-257 = test system: UACC-257
UACC-62 = test system: UACC-62
UO-31 = test system: UO-31

Row | Structure (SMILES) | GI50 (CAKI-1) | GI50 (COLO 205) | GI50 (HCT-15) [µM] | GI50 (HOP-62) | GI50 (HT-29) | GI50 (IGROV-1) | GI50 (MDA-MB-231) | GI50 (NCI-H226) | GI50 (NCI-H522) | GI50 (OVCAR-5) | GI50 (RPMI-8226) | GI50 (RXF 393) | GI50 (SK-MEL-5) | GI50 (SK-OV-3) | GI50 (SNB-19) | GI50 (TK-10) | GI50 (U-251) | GI50 (UACC-257) | GI50 (UACC-62) | GI50 (UO-31)
1 | Cc1cc(Cl)nc2ccc(Cc3ccc4nc(Cl)cc(C)c4c3)cc12 | 39.8 µM (inactive) | > 100 µM (inactive) | 49.3 | 18.5 µM (inactive) | 68.5 µM (inactive) | 31.7 µM (inactive) | 17.1 µM (inactive) | 93.3 µM (inactive) | 24.2 µM (inactive) | > 100 µM (inactive) | 36.6 µM (inactive) | 11 µM (inactive) | 23.8 µM (inactive) | 14 µM (inactive) | 32.4 µM (inactive) | 20.7 µM (inactive) | 16.2 µM (inactive) | 27 µM (inactive) | 51.6 µM (inactive) | 37.6 µM (inactive)
2 | O=c1c2ccccc2c2ccccc2c(=O)n1-c1cc2c3ccccc3ccc2c2ccccc12 | > 100 µM (inactive) | > 100 µM (inactive) | > 100 | > 100 µM (inactive) | > 100 µM (inactive) | > 100 µM (inactive) | > 100 µM (inactive) | > 100 µM (inactive) | > 100 µM (inactive) | > 100 µM (inactive) | 60.3 µM (inactive) | > 100 µM (inactive) | > 100 µM (inactive) | > 100 µM (inactive) | > 100 µM (inactive) | > 100 µM (inactive) | > 100 µM (inactive) | > 100 µM (inactive) | > 100 µM (inactive) | > 100 µM (inactive)
3 | Cc1cc(Cl)ccc1OCC(=O)Oc1c(Cl)c(Cl)c(Cl)c(Cl)c1Cl | 33 µM (inactive) | 27.8 µM (inactive) | 27 | 21.4 µM (inactive) | 26.7 µM (inactive) | 17.4 µM (inactive) | 18 µM (inactive) | 20.2 µM (inactive) | 17.9 µM (inactive) | 24.4 µM (inactive) | 21.9 µM (inactive) | 18.7 µM (inactive) | 22.9 µM (inactive) | 27.9 µM (inactive) | 26.4 µM (inactive) | 30.3 µM (inactive) | 24.4 µM (inactive) | 19.6 µM (inactive) | 19 µM (inactive) | 17.1 µM (inactive)
4 | COc1cccc2c1C(=O)C(=O)c1c-2oc(=O)c2cc(C)cc(OC)c12 | 67.5 µM (inactive) | 67 µM (inactive) | 13.4 | 15.9 µM (inactive) | 22.6 µM (inactive) | 16.7 µM (inactive) | 21.3 µM (inactive) | 72.8 µM (inactive) | 14.1 µM (inactive) | > 75 µM (inactive) | 20.6 µM (inactive) | 19.1 µM (inactive) | 17 µM (inactive) | 58.5 µM (inactive) | 37.8 µM (inactive) | > 75 µM (inactive) | 12.8 µM (inactive) | 14.9 µM (inactive) | 31 µM (inactive) | 35 µM (inactive)
5 | O=CCCCCCOCc1ccccc1 | > 45.8 µM (inactive) | > 100 µM (inactive) | 37.4 | 29.4 µM (inactive) | > 100 µM (inactive) | 40.7 µM (inactive) | > 87.1 µM (inactive) | > 73.6 µM (inactive) | 20.7 µM (inactive) | > 100 µM (inactive) | 25.1 µM (inactive) | > 100 µM (inactive) | 25.4 µM (inactive) | > 100 µM (inactive) | > 87.1 µM (inactive) | 99.5 µM (inactive) | 69.5 µM (inactive) | > 60.8 µM (inactive) | > 58.1 µM (inactive) | > 87.1 µM (inactive)
6 | Cc1cc(C)n(-c2nc(C)c(CCO)c(=O)[nH]2)n1 | > 10 µM (inactive) | > 100 µM (inactive) | > 100 | > 100 µM (inactive) | > 100 µM (inactive) | > 100 µM (inactive) | > 100 µM (inactive) | > 100 µM (inactive) | > 100 µM (inactive) | > 100 µM (inactive) | > 100 µM (inactive) | > 100 µM (inactive) | > 100 µM (inactive) | > 100 µM (inactive) | > 100 µM (inactive) | > 100 µM (inactive) | > 100 µM (inactive) | > 100 µM (inactive) | > 100 µM (inactive) | > 100 µM (inactive)
7 | CC1OC(OC2C(O[C@H]3CC[C@@]4(C)C(=CC[C@H]5[C@@H]6C[C@@H]7O[C@]8(CC[C@@H](C)CO8)[C@@H](C)[C@@H]7[C@@]6(C)CC[C@@H]54)C3)OC(CO)C(O)C2OC2OC(CO)C(O)C(O)C2O)C(O)C(O)C1O (some centres not stated) | 3.5 µM (inactive) | 1.73 µM (inactive) | 1.95 | 2.22 µM (inactive) | 14.7 µM (inactive) | 1.76 µM (inactive) | 1.47 µM (inactive) | 2 µM (inactive) | 1.86 µM (inactive) | 13 µM (inactive) | 2.54 µM (inactive) | 2.17 µM (inactive) | 2.04 µM (inactive) | 1.8 µM (inactive) | 1.87 µM (inactive) | 1.93 µM (inactive) | 1.89 µM (inactive) | 1.86 µM (inactive) | 2.33 µM (inactive) | 1.94 µM (inactive)
8 | COP(=O)(OC)OCN(C)CC/C=C(\C)CC/C=C(\C)CCC=C(C)C | 17.6 µM (inactive) | 16.9 µM (inactive) | 16 | 16.1 µM (inactive) |  | 12.5 µM (inactive) | 20.2 µM (inactive) | 15.4 µM (inactive) | 13.4 µM (inactive) | 15.5 µM (inactive) | 10.6 µM (inactive) | 16.9 µM (inactive) | 11.8 µM (inactive) | 28.5 µM (inactive) | 10.4 µM (inactive) | 10.3 µM (inactive) | 17.7 µM (inactive) | 5.02 µM (inactive) |  | 14.1 µM (inactive)
9 | N#CC1(C#N)C2(c3ccccc3)OC(c3ccccc3)(c3cc4ccccc4cc32)C1(C#N)C#N | 7.91 µM (inactive) | 6.17 µM (inactive) | 12.2 | 20.7 µM (inactive) | 14.8 µM (inactive) | 14.8 µM (inactive) | 15.7 µM (inactive) | 12.6 µM (inactive) | 3.01 µM (inactive) | 15.8 µM (inactive) | 1.28 µM (inactive) | 5.51 µM (inactive) | 14.3 µM (inactive) | 21.1 µM (inactive) | 15.5 µM (inactive) | 16.2 µM (inactive) | 16.3 µM (inactive) | 27.5 µM (inactive) | 17.7 µM (inactive) | 24 µM (inactive)
10 | Cc1cccc(/N=N/c2c(C)nn(C(=O)CC(=O)Nc3ccccc3)c2C)c1 | > 100 µM (inactive) | > 100 µM (inactive) | > 100 | > 100 µM (inactive) | > 100 µM (inactive) | > 100 µM (inactive) | > 100 µM (inactive) | > 100 µM (inactive) | > 100 µM (inactive) | > 100 µM (inactive) | > 100 µM (inactive) | > 100 µM (inactive) | > 100 µM (inactive) | > 100 µM (inactive) | > 100 µM (inactive) | > 100 µM (inactive) | > 100 µM (inactive) | > 10 µM (inactive) | > 100 µM (inactive) | > 100 µM (inactive)
11 | CCN1CCC(O)(c2ccc(Oc3ccc(Cl)cc3)cc2)C(C(=O)c2ccc(Oc3ccc(Cl)cc3)cc2)C1 (configuration not stated) | 14.3 µM (inactive) | 13.2 µM (inactive) | 7.35 | 9.48 µM (inactive) | 5.07 µM (inactive) | 8.38 µM (inactive) | 14.7 µM (inactive) | 15 µM (inactive) | 2.83 µM (inactive) | 13.5 µM (inactive) | 3.37 µM (inactive) | 26.2 µM (inactive) | 12.2 µM (inactive) | 23.3 µM (inactive) | 14.5 µM (inactive) | 10.6 µM (inactive) | > 10 µM (inactive) | 13.3 µM (inactive) | 12.2 µM (inactive) | 13.6 µM (inactive)
12 | O=[N+]([O-])C(=C1NCCN1)/C(Cl)=C(\Cl)Br | 16.3 µM (inactive) | 19.6 µM (inactive) | 4.98 | > 100 µM (inactive) | 30.1 µM (inactive) | 52.2 µM (inactive) | > 60.3 µM (inactive) | > 81.8 µM (inactive) | 19.1 µM (inactive) | > 100 µM (inactive) | 22.4 µM (inactive) | 14.1 µM (inactive) | 51.9 µM (inactive) | > 100 µM (inactive) | > 100 µM (inactive) | > 72.4 µM (inactive) | 49.3 µM (inactive) | > 49.8 µM (inactive) | 43.1 µM (inactive) | 84.1 µM (inactive)
13 | COc1cc(Cn2c(=S)ss/c2=N\C(=S)N(C)C)cc(OC)c1OC | 4.57 µM (inactive) | 9.33 µM (inactive) | 3.57 | 13.3 µM (inactive) | 4.04 µM (inactive) | 17.2 µM (inactive) | 15.1 µM (inactive) | 24.3 µM (inactive) | 2.3 µM (inactive) | > 68.9 µM (inactive) | 6.7 µM (inactive) | 2.79 µM (inactive) | 2.26 µM (inactive) | 13.4 µM (inactive) | 46.1 µM (inactive) | 34.8 µM (inactive) | 4.61 µM (inactive) | 10.6 µM (inactive) | 2.85 µM (inactive) | 24.3 µM (inactive)
14 | CNC(=O)CCC(NC(=O)OC(C)(C)C)C(=O)NC(Cc1ccc([N+](=O)[O-])cc1)C(=O)NCC(=O)NC (configuration not stated) (Boc-Glu(NHMe)-[Phe(4-NO2)]-Gly-NHMe; configuration not given here) | > 100 µM (inactive) | > 100 µM (inactive) | > 100 | > 100 µM (inactive) | > 100 µM (inactive) | > 100 µM (inactive) | > 100 µM (inactive) | > 100 µM (inactive) | > 100 µM (inactive) | > 100 µM (inactive) | > 100 µM (inactive) | > 100 µM (inactive) | > 100 µM (inactive) | > 100 µM (inactive) | > 100 µM (inactive) | > 100 µM (inactive) | > 100 µM (inactive) |  | > 100 µM (inactive) | > 100 µM (inactive)
